The test concerns the target T1, human recombinant A3AR (expressed in HEK-293 cells) (Homo sapiens, UniProt P0DMS8).
T1 construct: host or cells: HEK-293 cells
T1 sequence (P0DMS8 1-318): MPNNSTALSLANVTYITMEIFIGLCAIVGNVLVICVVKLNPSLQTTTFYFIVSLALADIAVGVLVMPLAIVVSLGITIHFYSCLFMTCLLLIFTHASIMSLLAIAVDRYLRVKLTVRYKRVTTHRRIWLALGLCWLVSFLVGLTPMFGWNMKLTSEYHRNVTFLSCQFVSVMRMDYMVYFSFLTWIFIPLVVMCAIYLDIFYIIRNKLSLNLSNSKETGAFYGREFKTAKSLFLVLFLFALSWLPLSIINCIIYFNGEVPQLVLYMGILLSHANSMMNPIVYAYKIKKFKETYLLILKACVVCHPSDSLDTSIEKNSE
In words: Adenosine receptors antagonism assay (Eurofins), [125I]-AB-MECA radioligand competition. In kind it is binding. The note with it: [125I]-AB-MECA 0.15 nM, r.t., 120 min; IC50 from dose-response curves; read-out: Potency Class A3AR.

Description: Assays were carried out at r.t. for 120 min. Compounds were initially tested at three concentrations (0.01, 0.1, 1 µM). […] IC50 values, which is the concentration causing a half-maximal inhibition of control specific binding, and Hill coefficients (nH) were determined by non-linear regression analysis of the competition curves generated with mean replicate values using Hill equation curve fitting. The inhibition constants (Ki) were calculated using the Cheng Prusoff equation.

On to `CCC(CC)Nc1cc(NC2CCc3ccccc32)c2nnc(C(C)C)n2n1` (racemic) [compound 81, N6-(1-ethylpropyl)-N8-indan-1-yl-3-isopropyl-[1,2,4]triazolo[4,3-b]pyridazine-6,8-diamine], for which the IC50 is 10 to 100 nM.

With `CCC(C)Nc1cc(NCc2ccccn2)c2nnc(C3CC3)n2n1` (racemic) [compound 193, N6-(sec-butyl)-3-cyclopropyl-N8-(pyridin-2-ylmethyl)-[1,2,4]triazolo[4,3-b]pyridazine-6,8-diamine], the IC50 is 1 to 10 nM.

Regarding `CC(C)c1nnc2c(NCc3ccccc3)cc(N[C@H](CO)[C@@H](C)O)nn12` (stereo in doubt) [compound 5, (2R,3R)-2-[[8-(benzylamino)-3-isopropyl-[1,2,4]triazolo[4,3-b]pyridazin-6-yl]amino]butane-1,3-diol], the IC50 lay in the range of 100 to 1000 nM.

Turning to `CC[C@H](CO)Nc1cc(NCc2ccccc2)c2nnc(C(C)C)n2n1` [compound 1, (2R)-2-[[8-(benzylamino)-3-isopropyl-[1,2,4]triazolo[4,3-b]pyridazin-6-yl]amino]butan-1-ol], the IC50 fell in the range of 10 to 100 nM.

With `CC[C@@H](CO)Nc1cc(NCc2ccccc2)c2nnc(C(C)C)n2n1` [compound 2, (2S)-2-[[8-(benzylamino)-3-isopropyl-[1,2,4]triazolo[4,3-b]pyridazin-6-yl]amino]butan-1-ol], the IC50 fell in the range of 10 to 100 nM.

Take `CC(C)c1nnc2c(NCc3ccccc3)cc(NC(CO)CO)nn12` [compound 3, 2-[[8-(benzylamino)-3-isopropyl-[1,2,4]triazolo[4,3-b]pyridazin-6-yl]amino]propane-1,3-diol]: the IC50 was in the range of 100 to 1000 nM.

Regarding `CC(C)c1nnc2c(NCc3ccccc3)cc(N3CCOCC3)nn12` [compound 6, N-benzyl-3-isopropyl-6-morpholino-[1,2,4]triazolo[4,3-b]pyridazin-8-amine], the IC50 lay within 100 to 1000 nM.

Regarding `CC(C)c1nnc2c(NCc3ccccc3)cc(NCCOCCOCCN)nn12` [compound 8, N6-[2-[2-(2-aminoethoxy)ethoxy]ethyl]-N8-benzyl-3-isopropyl-[1,2,4]triazolo[4,3-b]pyridazine-6,8-diamine], the IC50 lay in the range of 100 to 1000 nM.

Regarding `CC(C)c1nnc2c(NCc3ccccc3)cc(NCCCO)nn12` [compound 9, 3-[[8-(benzylamino)-3-isopropyl-[1,2,4]triazolo[4,3-b]pyridazin-6-yl]amino]propan-1-ol], the IC50 is 100 to 1000 nM.

In the case of `COCCCNc1cc(NCc2ccccc2)c2nnc(C(C)C)n2n1` [compound 10, N8-benzyl-3-isopropyl-N6-(3-methoxypropyl)-[1,2,4]triazolo[4,3-b]pyridazine-6,8-diamine], the IC50 lay in the range of 10 to 100 nM.

Regarding `CC(C)c1nnc2c(NCc3ccccc3)cc(NCCO)nn12` [compound 11, 2-[[8-(benzylamino)-3-isopropyl-[1,2,4]triazolo[4,3-b]pyridazin-6-yl]amino]ethanol], the IC50 lay in the range of 100 to 1000 nM.

With `COCCNc1cc(NCc2ccccc2)c2nnc(C(C)C)n2n1` [compound 12, N8-benzyl-3-isopropyl-N6-(2-methoxyethyl)-[1,2,4]triazolo[4,3-b]pyridazine-6,8-diamine], the IC50 is 100 to 1000 nM.

Take `CC(C)c1nnc2c(NCc3ccccc3)cc(NCCCCO)nn12` [compound 13, 4-[[8-(benzylamino)-3-isopropyl-[1,2,4]triazolo[4,3-b]pyridazin-6-yl]amino]butan-1-ol]: the IC50 was 10 to 100 nM.

`COCCCCNc1cc(NCc2ccccc2)c2nnc(C(C)C)n2n1` [compound 14, N8-benzyl-3-isopropyl-N6-(4-methoxybutyl)-[1,2,4]triazolo[4,3-b]pyridazine-6,8-diamine]: the IC50 lay within 10 to 100 nM.

As for `CC(C)c1nnc2c(NCc3ccccc3)cc(NCCCCCO)nn12` [compound 15, 5-[[8-(benzylamino)-3-isopropyl-[1,2,4]triazolo[4,3-b]pyridazin-6-yl]amino]pentan-1-ol], the IC50 lay in the range of 100 to 1000 nM.

Consider `COCCCCCNc1cc(NCc2ccccc2)c2nnc(C(C)C)n2n1` [compound 16, N8-benzyl-3-isopropyl-N6-(5-methoxypentyl)-[1,2,4]triazolo[4,3-b]pyridazine-6,8-diamine], for which the IC50 lay within 100 to 1000 nM.

For the compound `CCC(CC)Nc1cc(NCc2ccccc2)c2nnc(C(C)C)n2n1` [compound 18, N8-benzyl-N6-(1-ethylpropyl)-3-isopropyl-[1,2,4]triazolo[4,3-b]pyridazine-6,8-diamine], the IC50 was 1 to 10 nM.

For `CC(C)c1nnc2c(NCc3ccccc3)cc(N[C@@H]3CCOC3)nn12` [compound 19, N8-benzyl-3-isopropyl-N6-[(3R)-tetrahydrofuran-3-yl]-[1,2,4]triazolo[4,3-b]pyridazine-6,8-diamine], the IC50 lay within 10 to 100 nM.

As for `CC(C)c1nnc2c(NCc3ccccc3)cc(N[C@@H]3CCCOC3)nn12` [compound 21, N8-benzyl-3-isopropyl-N6-[(3R)-tetrahydropyran-3-yl]-[1,2,4]triazolo[4,3-b]pyridazine-6,8-diamine], the IC50 is 10 to 100 nM.

With `CC(C)c1nnc2c(NCc3ccccc3)cc(N[C@H]3CCCOC3)nn12` [compound 22, N8-benzyl-3-isopropyl-N6-[(3S)-tetrahydropyran-3-yl]-[1,2,4]triazolo[4,3-b]pyridazine-6,8-diamine], the IC50 fell in the range of 10 to 100 nM.

For `CC(C)c1nnc2c(NCc3ccccc3)cc(NC3CCOCC3)nn12` [compound 23, N8-benzyl-3-isopropyl-N6-tetrahydropyran-4-yl-[1,2,4]triazolo[4,3-b]pyridazine-6,8-diamine], the IC50 fell in the range of 10 to 100 nM.

Take `CC(=O)NCCCNc1cc(NCc2ccccc2)c2nnc(C(C)C)n2n1` [compound 24, N-[3-[[8-(benzylamino)-3-isopropyl-[1,2,4]triazolo[4,3-b]pyridazin-6-yl]amino]propyl]acetamide]: the IC50 lay in the range of 100 to 1000 nM.

On to `CC(C)c1nnc2c(NCc3ccccc3)cc(NCCC(N)=O)nn12` [compound 25, 3-[[8-(benzylamino)-3-isopropyl-[1,2,4]triazolo[4,3-b]pyridazin-6-yl]amino]propanamide], for which the IC50 lay within 100 to 1000 nM.

As to `CNC(=O)CCNc1cc(NCc2ccccc2)c2nnc(C(C)C)n2n1` [compound 26, 3-[[8-(benzylamino)-3-isopropyl-[1,2,4]triazolo[4,3-b]pyridazin-6-yl]amino]-N-methyl-propanamide], the IC50 fell in the range of 10 to 100 nM.

Regarding `CC(C)c1nnc2c(NCc3ccccc3)cc(NCCC(=O)N(C)C)nn12` [compound 27, 3-[[8-(benzylamino)-3-isopropyl-[1,2,4]triazolo[4,3-b]pyridazin-6-yl]amino]-N,N-dimethyl-propanamide], the IC50 fell in the range of 100 to 1000 nM.

For the compound `COC(=O)CCNc1cc(NCc2ccccc2)c2nnc(C(C)C)n2n1` [compound 28, methyl 3-[[8-(benzylamino)-3-isopropyl-[1,2,4]triazolo[4,3-b]pyridazin-6-yl]amino]propanoate], the IC50 lay in the range of 10 to 100 nM.

For the compound `CCOC(=O)CCNc1cc(NCc2ccccc2)c2nnc(C(C)C)n2n1` [compound 29, ethyl 3-[[8-(benzylamino)-3-isopropyl-[1,2,4]triazolo[4,3-b]pyridazin-6-yl]amino]propanoate], the IC50 was 10 to 100 nM.

With `CC[C@H](CO)Nc1cc(NCc2ccccc2)c2nnc(C3CC3)n2n1` [compound 30, (2R)-2-[[8-(benzylamino)-3-cyclopropyl-[1,2,4]triazolo[4,3-b]pyridazin-6-yl]amino]butan-1-ol], the IC50 lay within 100 to 1000 nM.

Turning to `COCCCNc1cc(NCc2ccccc2)c2nnc(C3CC3)n2n1` [compound 31, N8-benzyl-3-cyclopropyl-N6-(3-methoxypropyl)-[1,2,4]triazolo[4,3-b]pyridazine-6,8-diamine], the IC50 lay in the range of 10 to 100 nM.

`COCCCNc1cc(NCc2ccccc2)c2nnc(C)n2n1` [compound 32, N8-benzyl-N6-(3-methoxypropyl)-3-methyl-[1,2,4]triazolo[4,3-b]pyridazine-6,8-diamine]: the IC50 was 100 to 1000 nM.

Regarding `COCCCNc1cc(NCc2ccccc2)c2nnc(-c3ccccc3)n2n1` [compound 34, N8-benzyl-N6-(3-methoxypropyl)-3-phenyl-[1,2,4]triazolo[4,3-b]pyridazine-6,8-diamine], the IC50 fell in the range of 100 to 1000 nM.

For `CC[C@H](CO)Nc1cc(NCc2ccccc2)c2nnc(-c3ccccc3)n2n1` [compound 35, (2R)-2-[[8-(benzylamino)-3-phenyl-[1,2,4]triazolo[4,3-b]pyridazin-6-yl]amino]butan-1-ol], the IC50 was 10 to 100 nM.

For `COCCCNc1cc(NCc2ccccc2)c2nnc(C(F)(F)F)n2n1` [compound 36, N8-benzyl-N6-(3-methoxypropyl)-3-(trifluoromethyl)-[1,2,4]triazolo[4,3-b]pyridazine-6,8-diamine], the IC50 was 10 to 100 nM.

`CC[C@H](CO)Nc1cc(NCc2ccccc2)c2nnc(C(F)(F)F)n2n1` [compound 37, (2R)-2-[[8-(benzylamino)-3-(trifluoromethyl)-[1,2,4]triazolo[4,3-b]pyridazin-6-yl]amino]butan-1-ol]: the IC50 is 10 to 100 nM.

Turning to `CC[C@H](CO)Nc1cc(NCc2ccccc2O)c2nnc(C(C)C)n2n1` [compound 38, 2-[[[6-[[(1R)-1-(hydroxymethyl)propyl]amino]-3-isopropyl-[1,2,4]triazolo[4,3-b]pyridazin-8-yl]amino]methyl]phenol], the IC50 lay within 1 to 10 nM.

Turning to `COCCCNc1cc(NCc2ccccc2O)c2nnc(C(C)C)n2n1` [compound 39, 2-[[[3-isopropyl-6-(3-methoxypropylamino)-[1,2,4]triazolo[4,3-b]pyridazin-8-yl]amino]methyl]phenol], the IC50 was in the range of 10 to 100 nM.

The values above are taken from patent EP4477653A1 (Perha Pharmaceuticals, priority 2023, dated 2024).
